From patent EP2487171A1, “Dihydrobenzopyran, thiochroman, tetrahydroquinoleine and tetrahydronaphthalene derivatives and their use in anti-cancer therapy” (Université de Liège, priority 2011, dated 2012)

Key:
[1] = test system: human U373 glioma cell line; assay: Quantitative videomicroscopy (computer-assisted phase-contrast microscopy); format: cell-based; details: U373 cells treated at the IC50 concentration from MTT, filmed for 72h; cytostatic versus cytotoxic effects
From the text: In addition, the inventors could establish that the compounds of the invention act through a non-apoptosis-related mechanism thanks to a unique experimental approach used by the inventors, i.e. computer-assisted phase-contrast microscopy (quantitative videomicroscopy), making them good candidates as anti-cancer drugs for treating apoptosis-resistant tumor or cancer cells and for overcoming problems linked to the known anti-cancer drugs.
As the MTT test is based on the mitochondria functions, we also investigated the effects of the compounds according to the invention on cell proliferation, migration and morphology by means of a cellular imaging approach (Debeir et al., Cytometry 60:29-40, 2004; Debeir et al., IEEE Trans Med Imaging 24:697-711, 2005) in the human U373 glioma cell line, which is apoptosis-resistant but autophagy-sensitive (Lefranc F et al., Neurosurgery 2008).
Cellular imaging relied on the use of computer-assisted phase-contrast microscopy making possible to film the behaviour of living cells in culture dishes for several days.
Cells were seeded in a 25-cm^2 flask at a low density, treated or not with the compounds of the invention (at their IC50 concentration determined previously by MTT tests) and filmed thereafter for a period of 72h. The experiment was conducted in triplicate.
The behaviour of the cells, in terms of morphology, growth and death were thus investigated. The effect on the overall growth was measured by counting the number of cells on the first (0h) and the last image (72h) of each film. The global growth ratio (GGR) was then deduced by dividing the number of cells on the last image by the number of cells on the first image. The ratio GGRtreated cells / GGRcontrol cells, was further calculated thereby obtaining a value that describes the effect of compounds of the present invention on the overall cell growth.
The methodology is fully described and validated in Debeir et al., 2008, Exp Cell Res 314:2985-2998 and Mathieu et al., 2009, J Cell Mol Med, Feb 20, 2009.
Thanks to the quantitative videomicroscopy (QVM) approach, we classified the compounds into 4 distinctive classes on the basis of their cytostatic versus cytotoxic effects (Table 3). • Class I: actually cytostatic for 3 days (< 10 % of cell death at the 3rd day) • Class II: cytostatic but becomes cytotoxic with < 10% cell death on the 2nd day and > 20% of cell death on the 3rd day • Class III: cytostatic but rapidly becomes cytotoxic with < 10% cell death on the 1st day, > 20% of cell death on the 2nd day and > 50% of cell death on the 3rd day • Class IV: cytotoxic (> 50% of cell death on the first day)
In Fig. 1a, compounds of example 14 (5 µM), example 19 (20 µM) and example 23 (5 µM) belong to QVM Class I because they display cytostatic effects on human U373 GBM cells during the whole duration of the experiment. Cytostatic effects mean that < 10 % of cell death was recorded at the end of the experiment, i.e. at the end of the 3rd day. QVM analyses enable the global growth ratio (GGR) to be calculated in each experiment. The GGR index is obtained by dividing the number of cells in the last image by the number of cells in the first image of the experiment, knowing that 1080 images are taken during the 72 h-period of observation. The ratio GGR^treated cells / GGR^control cells was further calculated thereby obtaining a value that describes the effect of compounds on the overall cell growth. Thus, a GGR index of 0.2 means that they remain only 20% of treated cells compare to the control cells at the end of the experiment.

Hs683 = assay: MTT colorimetric assay, overall cell growth; format: cell-based; details: Homo sapiens, Hs 683; Hs683 cells, 72 hours of incubation; read-out: IC50 (µM) In Vitro Growth Inhibitory Concentrations (MTT Colorimetric Assay) Hs683
Procedure: (§1) The compounds and particularly dihydrobenzopyran, thiochroman, tetrahydroquinoleine and tetrahydronaphthalene derivatives of the invention were evaluated for their anti-proliferative effect (by means of the colorimetric MTT assay), in the following human glioblastoma cell-lines U373, T98G and Hs683 and in the mouse glioma cell line GL261. Normal brain cells (primocultures from newborn mice) were also used in order to determine the bioselectivity (B^N/C) of the compounds of interest, i.e. the ratio between the concentrations that inhibits 50% of the growth of brain cancer (C) cells (glioma cells) and the concentration that inhibits 50% of the growth of normal (N) brain cells (primocultures of astrocytes). The ideal situation to be reached is a bioselectivity of B^N/C > 10.
(§2) MTT tests were performed in order to rapidly, i.e. within 5 days, measure the effect of compounds of this invention on the overall cell growth. The test measured the number of metabolically active living cells that were able to transform the yellow product 3-(4,5-dimethylthiazol-2-yl)-2,5-diphenyl tetrazolium bromide (herein referred as MTT) into the blue product formazan dye by mitochondrial reduction. The amount of formazan obtained at the end of the experiment, measured by means of a spectrophotometer, is directly proportional to the number of living cells. Optical density determination thus enabled a quantitative measurement of the effect of the investigated compounds as compared to the control condition (untreated cells) and/or to other reference compounds.
(§3) Three human cancer cell lines were used in the following MTT tests.
(§4) To perform the assay, cells were allowed to grow in 96-well micro-wells with a flat bottom with an amount of 100 µl of cell suspension per well with 1,000 to 8,000 cells/well depending on the cell type used. Each cell line was seeded in its appropriate culture medium.
(§5) The detailed experimental procedure was the following: after a 24-hour period of incubation at 37°C, the culture medium was replaced by 100 µl of fresh medium in which the tested compound was previously dissolved, at the following molar concentrations: 10^-8 M, 5.10^-8 M, 10^-7 M, 5.10^-7 M, 10^-6 M, 5.10^-6 M, 10^-5 M, 5.10^-5 M and 10^-4 M. Each experiment was performed in sextuplicate (6 times).
(§6) After 72 hours of incubation at 37°C with (experimental conditions) or without (control condition) the compound to be tested, the medium was replaced by 100 µl MTT dissolved in RPMI (1640 without phenol red) at a concentration of 0.5 mg/ml. The micro-wells were subsequently incubated during 3 hours and a half at 37°C and centrifuged at 1300 rpm during 10 minutes. MTT was removed and formazan crystals formed were dissolved in 100 µl DMSO. The micro-wells were shaken for 5 minutes and read on a spectrophotometer at wavelengths of 570 nm (maximal formazan absorbance).
(§7) For each experimental condition, the mean optical density was calculated, allowing the determination of the percentage of remaining living cells in comparison to the control.

U373 = assay: MTT colorimetric assay, overall cell growth; format: cell-based; details: Homo sapiens, U373 MG; U373 cells, 72 hours of incubation; read-out: IC50 (µM) In Vitro Growth Inhibitory Concentrations (MTT Colorimetric Assay) U373
Procedure: as §1, §2, §3, §4, §5, §6, §7

T98G = assay: MTT colorimetric assay, overall cell growth; details: Homo sapiens, 72 h, read-out: IC50 (µM) In Vitro Growth Inhibitory Concentrations (MTT Colorimetric Assay) T98G;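 also: growth inhibition of the human glioblastoma line measured by MTT reduction to formazan, optical density read on a spectrophotometer at 570 nm, untreated cells as control, nine concentrations from 10 nM to 100 µM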
Procedure: The compounds and particularly dihydrobenzopyran, thiochroman, tetrahydroquinoleine and tetrahydronaphthalene derivatives of the invention were evaluated for their anti-proliferative effect (by means of the colorimetric MTT assay), in the following human glioblastoma cell-lines U373, T98G and Hs683 and in the mouse glioma cell line GL261. Normal brain cells (primocultures from newborn mice) were also used in order to determine the bioselectivity (B^N/C) of the compounds of interest, i.e. the ratio between the concentrations that inhibits 50% of the growth of brain cancer (C) cells (glioma cells) and the concentration that inhibits 50% of the growth of normal (N) brain cells (primocultures of astrocytes).
as §2, §3, §4, §5
The micro-wells were subsequently incubated during 3 hours and a half at 37°C and centrifuged at 1300 rpm during 10 minutes. MTT was removed and formazan crystals formed were dissolved in 100 µl DMSO. The micro-wells were shaken for 5 minutes and read on a spectrophotometer at wavelengths of 570 nm (maximal formazan absorbance).
as §7

Structure (SMILES) | QVM Class [1] | IC50 (Hs683) [µM] | IC50 (U373) [µM] | IC50 (T98G) [µM]
CC(C)(C)OC(=O)Nc1ccc2c(c1)C(NC(=O)Nc1cccc(Br)c1)CC(C)(C)O2 (racemic) [Example 20, R/S-N-3-bromophenyl-N'-(6-tert-butoxycarbonylamino-3,4-dihydro-2,2-dimethyl-2H-1-benzopyran-4-yl)urea] | III (Class III: cytostatic but rapidly becomes cytotoxic with < 10% cell death on the 1st day, > 20% of cell death on the 2nd day and > 50% of cell death on the 3rd day) | 18 | 22 | 26
CC(C)(C)OC(=O)Nc1ccc2c(c1)C(NC(=O)Nc1ccc(C(F)(F)F)cc1Cl)CC(C)(C)O2 (racemic) [Example 30, R/S-N-2-chloro-4-trifluoromethylphenyl-N'-(6-tert-butoxycarbonylamino-3,4-dihydro-2,2-dimethyl-2H-1-benzopyran-4-yl)urea] | II (Class II: cytostatic but becomes cytotoxic with < 10% cell death on the 2nd day and > 20% of cell death on the 3rd day) | 25 | 26 | 34
CC(C)(C)OC(=O)Nc1ccc2c(c1)C(NC(=O)Nc1ccc(Cl)cc1)CC(C)(C)O2 (racemic) [Example 17, R/S-N-4-chlorophenyl-N'-(6-tert-butoxycarbonylamino-3,4-dihydro-2,2-dimethyl-2H-1-benzopyran-4-yl)urea] | III (Class III: cytostatic but rapidly becomes cytotoxic with < 10% cell death on the 1st day, > 20% of cell death on the 2nd day and > 50% of cell death on the 3rd day) | 26 | 22 | 26
CC(C)(C)OC(=O)Nc1ccc2c(c1)C(NC(=O)Nc1ccc(F)cc1)CC(C)(C)O2 (racemic) [Example 18, R/S-N-4-fluorophenyl-N'-(6-tert-butoxycarbonylamino-3,4-dihydro-2,2-dimethyl-2H-1-benzopyran-4-yl)urea] | I (Class I: actually cytostatic for 3 days (< 10 % of cell death at the 3rd day)) | 35 | 30 | 33
CC(C)(C)OC(=O)Nc1ccc2c(c1)C(NC(=O)Nc1ccccc1Cl)CC(C)(C)O2 (racemic) [Example 35, R/S-N-2-chlorophenyl-N'-(6-tert-butoxycarbonylamino-3,4-dihydro-2,2-dimethyl-2H-1-benzopyran-4-yl)urea] | – | 34 | 59 | 100
CC(C)(C)OC(=O)Nc1ccc2c(c1)C(NC(=O)Nc1cccc(Cl)c1)CCO2 (racemic) [Example 2, R/S-N-3-chlorophenyl-N'-(6-tert-butoxycarbonylamino-3,4-dihydro-2H-1-benzopyran-4-yl)urea] | – | 28 | 19 | 29
CC(C)(C)OC(=O)Nc1ccc2c(c1)C(NC(=O)Nc1cccc(C#N)c1)CCO2 (racemic) [Example 5, R/S-N-3-cyanophenyl-N'-(6-tert-butoxycarbonylamino-3,4-dihydro-2H-1-benzopyran-4-yl)urea] | – | 25 | 29 | 38
CC(C)(C)OC(=O)Nc1ccc2c(c1)C(NC(=O)Nc1ccccc1C#N)CCO2 (racemic) [Example 4, R/S-N-2-cyanophenyl-N'-(6-tert-butoxycarbonylamino-3,4-dihydro-2H-1-benzopyran-4-yl)urea] | – | 44 | 53 | 65
CC(C)(C)OC(=O)Nc1ccc2c(c1)C(NC(=O)Nc1ccc(Cl)c(C(F)(F)F)c1)CC(C)(C)O2 (racemic) [Example 33, R/S-N-4-chloro-3-trifluoromethylphenyl-N'-(6-tert-butoxycarbonylamino-3,4-dihydro-2,2-dimethyl-2H-1-benzopyran-4-yl)urea] | III (Class III: cytostatic but rapidly becomes cytotoxic with < 10% cell death on the 1st day, > 20% of cell death on the 2nd day and > 50% of cell death on the 3rd day) | 22 | 21 | 23
CC(C)(C)OC(=O)Nc1ccc2c(c1)C(NC(=O)Nc1ccc(Br)cc1)CC(C)(C)O2 (racemic) [Example 34, R/S-N-4-bromophenyl-N'-(6-tert-butoxycarbonylamino-3,4-dihydro-2,2-dimethyl-2H-1-benzopyran-4-yl)urea] | III (Class III: cytostatic but rapidly becomes cytotoxic with < 10% cell death on the 1st day, > 20% of cell death on the 2nd day and > 50% of cell death on the 3rd day) | 21 | 22 | 21
CC(C)(C)OC(=O)Nc1ccc2c(c1)C(NC(=O)Nc1ccc(Cl)cc1)CCO2 (racemic) [Example 3, R/S-N-4-chlorophenyl-N'-(6-tert-butoxycarbonylamino-3,4-dihydro-2H-1-benzopyran-4-yl)urea] | – | > 100 | 11 | > 100
CC(C)(C)OC(=O)Nc1ccc2c(c1)C(NC(=O)Nc1ccc(C#N)cc1)CCO2 (racemic) [Example 6, R/S-N-4-cyanophenyl-N'-(6-tert-butoxycarbonylamino-3,4-dihydro-2H-1-benzopyran-4-yl)urea] | – | 30 | 42 | 39
CC(C)(C)OC(=O)Nc1ccc2c(c1)C(NC(=O)Nc1ccccc1C#N)CC(C)(C)O2 (racemic) [Example 36, R/S-N-2-cyanophenyl-N'-(6-tert-butoxycarbonylamino-3,4-dihydro-2,2-dimethyl-2H-1-benzopyran-4-yl)urea] | I (Class I: actually cytostatic for 3 days (< 10 % of cell death at the 3rd day)) | 54 | 45 | 67
CC(C)(C)OC(=O)Nc1ccc2c(c1)C(NC(=O)Nc1ccc([N+](=O)[O-])cc1)CC(C)(C)O2 (racemic) [Example 22, R/S-N-4-nitrophenyl-N'-(6-tert-butoxycarbonylamino-3,4-dihydro-2,2-dimethyl-2H-1-benzopyran-4-yl)urea] | IV (Class IV: cytotoxic (> 50% of cell death on the first day)) | 20 | 24 | 26
CC(C)(C)OC(=O)Nc1ccc2c(c1)C(NC(=O)Nc1cccc(F)c1)CC(C)(C)O2 (racemic) [Example 19, R/S-N-3-fluorophenyl-N'-(6-tert-butoxycarbonylamino-3,4-dihydro-2,2-dimethyl-2H-1-benzopyran-4-yl)urea] | I (Class I: actually cytostatic for 3 days (< 10 % of cell death at the 3rd day)) | 19 | 20 | 26
CC(C)(C)OC(=O)Nc1ccc2c(c1)C(NC(=O)Nc1c(Cl)cccc1C(F)(F)F)CC(C)(C)O2 (racemic) [Example 32, R/S-N-2-chloro-6-trifluoromethylphenyl-N'-(6-tert-butoxycarbonylamino-3,4-dihydro-2,2-dimethyl-2H-1-benzopyran-4-yl)urea] | III (Class III: cytostatic but rapidly becomes cytotoxic with < 10% cell death on the 1st day, > 20% of cell death on the 2nd day and > 50% of cell death on the 3rd day) | 66 | 60 | 60
CC(C)(C)OC(=O)Nc1ccc2c(c1)C(NC(=O)Nc1ccccc1Cl)CCO2 (racemic) [Example 1, R/S-N-2-chlorophenyl-N'-(6-tert-butoxycarbonylamino-3,4-dihydro-2H-1-benzopyran-4-yl)urea] | – | 23 | 26 | 24
